Converted amounts (≈) assume the structure as drawn. Where two headings read alike, the source gives them in different places.

In general, LC50 refers to the concentration that kills 50% of the test population. The low end stands for a more lethal substance, the high end for a less lethal substance. A word on the Cmax: it is the maximum level reached in the sampled fluid or tissue. One may read the Tmax as the time at which the peak concentration occurs.

For data set [1] the following is noted: cited from earlier work.
A further data set has as its target T1, rh CYP3A4 supersomes (Homo sapiens, UniProt P08684).
T1 construct: purchased Corning Life Sciences B.V. (Amsterdam, The Netherlands)
The data set is described as follows: Ivermectin metabolism by recombinant human CYP3A4 supersomes. It counts as in vitro ADME. The conditions noted are these: 10 µM ivermectin, within 1 h. How it is done:
(§1) The assay mixture was heated for 10 min at 37 °C in a Thermomixer 5436 (Eppendorf, Hamburg, Germany) and the reaction was initiated by the addition of supersomes. Samples (50 μL) were taken after 0, 15, 30, 45, and 60 min. […] After centrifugation (30 min at 3220×g and 15 °C, 5810 R Eppendorf centrifuge), sample supernatants (10 µL) were analysed by LC–MS/MS. Metabolite production was quantified by dividing the metabolite peak area with the ISTD peak area. Each metabolism assay was performed in triplicate.

The test system of data set [2] is Anopheles stephensi mosquitoes. The data set can be described thus: 3-day LC50 in Anopheles stephensi (membrane feeding, dilutions). The class given is in vivo. The conditions noted are these: 72 h after blood feeding. How it is done:
A pilot test was performed to evaluate optimal dilutions matching the expected LC50 values (data not shown).
Student's t test was adopted to test the significance of all mean survival differences between groups, using the R package ggsignif (version 0.6.4). Survival analyses, summary and visualisation of survival analysis were computed using the GNU R packages survival (version 3.1-8) and survminer (version 0.4.9). Replicates were pooled and analysed by the logrank test and the hazard ratio with 95% confidence intervals. LC50 in An. stephensi mosquito were approximated with regression analysis, using GNU R package drc (version 3.0-1) for analysis of dose–response curves (Additional file 1: Fig. S3). The time above LC50 estimation (Additional file 1: Fig. S4) was computed using the GNU R package data.table (version 1.14.6).

For data set [3] the following is noted: plasma, single oral 12 mg ivermectin, mean ± SD; cited from earlier work.
In data set [4] the test system is Anopheles stephensi mosquitoes. The data set is described as follows: Anopheles stephensi membrane feeding screening assay (survival and activity). The class given is in vivo. The conditions noted are these: for Average activity score: score +2 flying, +1 moving, 0 dead. As for the experimental part:
The final DMSO content in blood was 0.1%, which was also the DMSO concentration used for the negative control assays (0.1% DMSO in blank blood). Inclusion of blank fractions as additional negative controls were not considered, because it would not have been feasible to also test the corresponding blank fraction for each metabolite fraction (F1–F9). The blood preparations were rotated at room temperature for 20 min to ensure a uniform metabolite distribution (Rotator Genie, Scientific Industries, Bohemia, USA). The dissolution of the metabolites was confirmed by LC–MS/MS.
Around 50–70 female mosquitoes aged 5–10 days post-emergence were transferred with a mouth aspirator into 20 mL paper cups. A piece of mosquito netting was used to cover the cups. Mosquitoes were starved for 24 h before treatment. The mosquito blood meals were heated in a water bath (SAHARA PPO S5P Heated Bath Circulators, Thermo Fisher Scientific, New Hampshire, USA) for 20 min at 39 °C. A Petri dish (35 mm × 10 mm, BD, Franklin Lakes, USA) was filled with 3 mL of warm blood, sealed with a piece of sealing film (Parafilm®, Huberlab AG, Aesch, Switzerland). The Petri dish was placed upside down on top of the net sealing the paper cup. Female mosquitoes were allowed to feed for 20 min on the blood through the net and the sealing film. The feeding was conducted in a climate chamber (HPP110, Memmert GmbH + Co.KG, Schwabach, Germany) at 27 °C, 70% humidity, and 30% light intensity. After feeding, the cups were put on ice to immobilise the mosquitoes and only the fully engorged mosquitoes were selected for the assay. The mosquitoes were returned to the climate chamber to assess their activity and survival for 3 days.
In the framework of screening assays, mosquitoes were treated with blood containing each metabolite corresponding to Cmax levels observed in PK samples. […] In screening assays, eleven treatments were evaluated with three replicates using three batches of 50–70 mosquitoes.

In the next data set the test system is Aedes aegypti. The following applies: cited from earlier work.
The next data set addresses T2, rh CYP3A5 supersomes (Homo sapiens, UniProt P20815).
T2 construct: purchased Corning Life Sciences B.V. (Amsterdam, The Netherlands)
The data set is described as follows: Ivermectin metabolism by recombinant human CYP3A5 supersomes. The class given is in vitro ADME. The conditions noted are these: 10 µM ivermectin, within 1 h. As for the experimental part:
as §1

In a further data set the test system is An. gambiae. The following applies: cited from earlier work.
The next data set deals with An. stephensi. The following applies: cited from earlier work.

T1 sequence (P08684 whole entry): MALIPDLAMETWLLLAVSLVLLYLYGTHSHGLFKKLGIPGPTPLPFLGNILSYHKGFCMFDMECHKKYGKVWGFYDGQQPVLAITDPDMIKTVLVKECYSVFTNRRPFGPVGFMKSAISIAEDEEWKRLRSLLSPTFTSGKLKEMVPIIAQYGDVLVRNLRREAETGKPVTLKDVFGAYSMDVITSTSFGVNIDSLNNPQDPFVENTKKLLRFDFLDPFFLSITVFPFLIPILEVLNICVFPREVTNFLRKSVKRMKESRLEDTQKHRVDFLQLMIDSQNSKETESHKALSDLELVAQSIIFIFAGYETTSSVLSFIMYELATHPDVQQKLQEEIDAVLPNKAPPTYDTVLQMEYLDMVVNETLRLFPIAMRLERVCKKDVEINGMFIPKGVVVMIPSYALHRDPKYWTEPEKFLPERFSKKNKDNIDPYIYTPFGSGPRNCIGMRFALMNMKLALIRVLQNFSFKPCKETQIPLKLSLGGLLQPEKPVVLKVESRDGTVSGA
T2 sequence (P20815 whole entry): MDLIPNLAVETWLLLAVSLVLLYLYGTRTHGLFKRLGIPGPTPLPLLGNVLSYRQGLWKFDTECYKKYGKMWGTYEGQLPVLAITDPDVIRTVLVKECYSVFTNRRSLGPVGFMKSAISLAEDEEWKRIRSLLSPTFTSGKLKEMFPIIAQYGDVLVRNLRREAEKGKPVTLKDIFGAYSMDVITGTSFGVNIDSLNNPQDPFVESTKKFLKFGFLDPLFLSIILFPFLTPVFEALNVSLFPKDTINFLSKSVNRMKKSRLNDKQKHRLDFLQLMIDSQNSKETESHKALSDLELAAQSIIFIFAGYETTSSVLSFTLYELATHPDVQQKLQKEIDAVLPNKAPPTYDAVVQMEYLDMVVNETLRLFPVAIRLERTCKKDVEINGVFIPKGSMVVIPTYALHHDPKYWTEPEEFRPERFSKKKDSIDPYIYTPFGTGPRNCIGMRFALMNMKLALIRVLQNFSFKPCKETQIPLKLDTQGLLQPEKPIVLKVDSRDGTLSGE

For `CCC(C)C1OC2(CCC1C)CC1CC(CC=C(C)C(OC3CC(OC)C(OC4CC(OC)C(O)C(C)O4)C(C)O3)C(C)C=CC=C3COC4C(O)C(C)=CC(C(=O)O1)C34O)O2` (stereo not shown) [Ivermectin, 22,23-dihydroavermectin B1a, reference compound], the estimated half-life in [1] was 24 to 72 h. The peak concentration entry in data set [1] (single oral dose of 150 µg/kg) is recorded as “around 40 ng/mL”. Further, the “time of peak concentration” value in data set [1] (single oral dose of 150 µg/kg) was “Approximately 4 h”. In addition, the ivermectin metabolised on rh CYP3A4 supersomes is 80%; on rh CYP3A5 supersomes, 20%. In data set [2], the “3-day LC50” value was found to be 3.07 ng/mL. Besides, in [2] (Anopheles stephensi, 72 h), the 50% lethal concentration (LC50) was approximately 3 ng/mL (≈ 3.43 nM). In addition, the Cmax in [3] is recorded as 70.7 ± 16.1 ng/mL. Also, in data set [3], the Half-life is on record as 38.9 ± 20.8 h. The time to peak (Tmax) in [3] was 4.4 ± 1.4 h. Besides, the Average activity score came to 2.00 in data set [4] (0 h post feeding); 0.71 ± 0.05 in data set [4] (24 h post feeding); 0.71 in data set [4] (24 h post feeding, listed as IVM); 0.03 ± 0.02 in data set [4] (48 h post feeding); 0.03 in data set [4] (48 h post feeding, listed as IVM); 0 in [4] (72 h post feeding). For the same molecule, the “mean survival of mosquitoes after blood meal” value in [4] (blood meal at Cmax level) was “decreased”. Also, the “mosquitoes dead after 72 h” value in data set [4] (blood meal at Cmax level (ivermectin 50 ng/mL), 72 h after treatment) came to 100%. Also, in the data set on Aedes aegypti, the “LC50 within 7-days” value is 178 to 187 ng/mL. The values for the 7-day-LC50 with An. gambiae (blood fed from treated humans) and in the data set on An. gambiae (spiked ivermectin experiments (in vitro mixture)) were 3.4 ng/mL and 15.9 ng/mL, respectively. In addition, the 4-day-LC50 in the data set with An. stephensi is given as 7 ng/mL.

(Values after PMC10290335 (Malaria Journal, 2023).)
